The OPERA property sets (Mansouri et al. 2018)

Conditions: for log10 BCF / log10 biotransformation half-life (days): fish

| Structure (SMILES) | boiling point [°C] | melting point [°C] | other results |
| --- | --- | --- | --- |
| Nc1ccc(Cl)cc1Cl | 245 | 63.5 | log10 Koc (L/kg): 2.72; ready biodegradability: not readily biodegradable; log10 BCF: 1.36; log10 biotransformation half-life (days): -0.65 |
| C=CC12CN(C)C3C4COC(CC41)[C@]1(C(=O)Nc4ccccc41)C32 (some centres undefined) |  | 178 |  |
| COC(=O)c1ccc([N+](=O)[O-])cc1 |  | 95 |  |
| CC(O)C(O)CO (centres undefined) |  |  | log10 vapour pressure (mmHg): -2.47 |
| C1CC2CCCC(C1)C2 | 170 | 146 |  |
| CCCC |  | -138 | log10 Koa: 1.53; log10 vapour pressure (mmHg): 3.26; ready biodegradability: readily biodegradable |
| COc1ccccc1CCN | 236 |  |  |
| O=Cc1ccc2c(c1)OCO2 | 263 | 37 | log10 vapour pressure (mmHg): -2; ready biodegradability: readily biodegradable |
| CCC(C)CCCC(C)C (centres undefined) | 160 |  | log10 vapour pressure (mmHg): 0.469; log10 biotransformation half-life (days): 0.61 |
| CCC(=O)OC | 79.8 | -87.5 | log10 Henry constant (atm·m³/mol): -3.76; log10 vapour pressure (mmHg): 1.92 |
| CC(=O)O[C@]1(C(C)=O)CC[C@H]2[C@@H]3C[C@H](C)C4=CC(=O)CC[C@]4(C)[C@H]3CC[C@@]21C |  | 206 |  |
| O=[N+]([O-])c1ccc2ccc3cccc4ccc1c2c34 |  | 155 |  |
| O=c1cc[nH]c(=O)[nH]1 |  | 338 | log10 vapour pressure (mmHg): -4.33 |
| CCC(=O)O[C@](Cc1ccccc1)(c1ccccc1)[C@H](C)CN(C)C |  | 75.5 |  |
| CC(C)[C@@H](N)C(=O)O |  | 315 |  |
| CC(C)(C)OC(=O)C(Cl)(Cl)Cl |  | 25.5 |  |
| CCCCCCCCCCCCCCCCCCOS(=O)(=O)[O-].[Na+] |  | 212 |  |
| Nc1ccc(Cl)cc1C(=O)O |  |  | ready biodegradability: not readily biodegradable |
| CCC(C)C(C)(COC(N)=O)COC(N)=O (centres undefined) |  | 77 |  |
| CCC(C)CCBr (centres undefined) | 148 |  |  |
| CC(O)CO (centres undefined) | 188 | -60 | log10 Koc (L/kg): 0.36; log10 vapour pressure (mmHg): -0.889; ready biodegradability: readily biodegradable |
| Cc1ccc(C)c(OCCCC(C)(C)C(=O)O)c1 |  | 62 |  |
| Cc1cc(C(=O)NNCc2ccccc2)no1 |  | 106 |  |
| CC(C)COC=O | 98.2 | -95.8 | log10 vapour pressure (mmHg): 1.6 |
| Clc1c(Cl)c(Cl)c(-c2c(Cl)c(Cl)c(Cl)c(Cl)c2Cl)c(Cl)c1Cl |  |  | ready biodegradability: not readily biodegradable; log10 BCF: 4.24; log10 biotransformation half-life (days): 2.86 |

| Structure (SMILES) | boiling point [°C] | melting point [°C] | other results |
| --- | --- | --- | --- |
| Nc1cccc2ncccc12 | 310 | 110 | log10 vapour pressure (mmHg): -4.77 |
| O=C1OC(=O)c2c1ccc(Cl)c2Cl | 329 | 121 |  |
| Cc1ccc2cc3c(ccc4ccccc43)cc2c1 |  | 152 |  |
| COCCCNc1nc(NC(C)C)nc(SC)n1 |  |  | log10 vapour pressure (mmHg): -6.55 |
| CCC(=O)c1cc(O)ccc1O |  | 96.5 |  |
| CCC(CC)c1ccccn1 | 195 |  |  |
| C=C(C)c1ccc(Cl)cc1 |  |  | ready biodegradability: not readily biodegradable; log10 BCF: 2.84; log10 biotransformation half-life (days): 1.3 |
| OC(O)C(Cl)(Cl)Cl | 98 | 57 | log10 vapour pressure (mmHg): 1.18 |
| C/C=C(\C)C=O | 117 |  |  |
| c1ccc(-c2nc3ccccc3[nH]2)cc1 |  | 293 |  |
| Clc1cccc2[nH]nnc12 |  |  | log10 Koc (L/kg): 1.98 |
| CC1CN(C2CCCCCCCCCCC2)CC(C)O1 (centres undefined) |  | 71 | log10 vapour pressure (mmHg): -5.44 |
| Clc1ccc(Cl)c(-c2cccc(Cl)c2Cl)c1 |  |  | log10 Henry constant (atm·m³/mol): -3.85; log10 Koa: 8.36; log10 BCF: 4.84; log10 biotransformation half-life (days): 2.33 |
| C=CCCCC(=O)O | 203 | -37 |  |
| O=C(OCCO)c1ccc(C(=O)OCCO)cc1 |  |  | ready biodegradability: readily biodegradable |
| O=C(NCN1CCOCC1)c1cnccn1 |  | 118 |  |
| NC(=O)C(Cl)(Cl)Cl | 240 | 142 | log10 Koc (L/kg): 0.99 |
| CCC(Cl)CC | 97.5 | -105 | log10 vapour pressure (mmHg): 1.67 |
| CCCC(CC)C(C)CC (centres undefined) | 165 |  |  |
| Clc1cc2oc3c(Cl)c(Cl)ccc3c2c(Cl)c1Cl |  | 206 | log10 vapour pressure (mmHg): -8.65 |
| OCc1ccc2ccccc2c1 |  | 81.3 |  |
| N#CCc1ccccc1Cl | 251 | 24 |  |
| FC(Cl)C(Cl)(Cl)Cl (centres undefined) | 116 | -95.3 |  |
| CCC1CCc2ccccc2C1 (centres undefined) | 235 | -42.8 |  |
| CCCCCCCCCCCCCCCCOC(C)=O |  | -18.5 |  |

| Structure (SMILES) | boiling point [°C] | melting point [°C] | other results |
| --- | --- | --- | --- |
| Cc1cccc(C#N)c1 | 213 | -23 |  |
| CNc1ccccc1 | 196 | -57 | log10 Henry constant (atm·m³/mol): -5.05; log10 Koc (L/kg): 2.28; log10 vapour pressure (mmHg): -0.344; ready biodegradability: not readily biodegradable; log10 BCF: 1; log10 biotransformation half-life (days): -0.88 |
| O=C=Nc1ccc(Br)cc1 | 226 |  |  |
| O=C(Cl)CCCCl | 174 |  |  |
| OCCCCCCCCCO |  | 45.8 |  |
| CC(=O)OCOC(=O)[C@@H]1N2C(=O)[C@@H](NC(=O)Cc3ccccc3)[C@H]2SC1(C)C |  | 107 |  |
| N#CCC(=O)O |  | 66 | ready biodegradability: readily biodegradable |
| S=C=Nc1cccc(Cl)c1 | 250 |  |  |
| Oc1c(Cl)cc(Cl)c(Cl)c1Cl |  | 70 | log10 Koc (L/kg): 3.35; log10 vapour pressure (mmHg): -3.18; ready biodegradability: not readily biodegradable; log10 BCF: 2.3 |
| Brc1ccc(Oc2cc(Br)c(Br)cc2Br)c(Br)c1 |  |  | log10 Koa: 11.3; log10 vapour pressure (mmHg): -7.51; logP: 7.32; log10 BCF: 6.01; log10 biotransformation half-life (days): 1.95 |
| C[C@@H]1O[C@@H](O[C@H]2CC[C@]3(C=O)[C@H]4CC[C@]5(C)[C@@H](C6=CC(=O)OC6)CC[C@]5(O)[C@@H]4CC[C@]3(O)C2)[C@H](O)[C@H](O)[C@H]1O |  | 238 |  |
| CC(C)(C)C=O | 77.5 | 6 | ready biodegradability: readily biodegradable |
| c1ccc(OCc2ccc(CCCN3CCOCC3)cc2)cc1 |  | 52.5 |  |
| O=C1CN=C(c2ccccc2Cl)c2cc([N+](=O)[O-])ccc2N1 |  | 238 |  |
| O=C1C(Cl)=CC(=NCl)C=C1Cl |  | 66 |  |
| c1ccc2c(c1)sc1ccccc12 | 332 | 97 | log10 Koc (L/kg): 4.05; log10 biodegradation half-life (days): 1.56; log10 vapour pressure (mmHg): -3.69; ready biodegradability: not readily biodegradable; log10 BCF: 3.05; log10 biotransformation half-life (days): 0.83 |
| CCOC(=O)c1ccc(Cl)cc1 | 238 |  |  |
| C=C(C)C(=O)OC | 100 | -48 | log10 vapour pressure (mmHg): 1.59; ready biodegradability: readily biodegradable |
| ClC(Cl)(Br)CBr | 195 | -26 | log10 vapour pressure (mmHg): -0.0458 |
| Oc1cc(Cl)cc(Cl)c1 | 233 | 68 | log10 Koc (L/kg): 2.83; log10 vapour pressure (mmHg): -2.07; ready biodegradability: not readily biodegradable; log10 BCF: 1.91; log10 biotransformation half-life (days): -0.91 |
| CC(C(=O)O)c1ccc(C(=O)c2ccccc2)s1 (centres undefined) |  | 96 |  |
| C[C@]12CCC(=O)C(O)=C1CC[C@@H]1[C@@H]2CC[C@@]2(C)[C@H]1CC[C@]2(C)O |  | 170 |  |
| CC(C)C1CCC(Cc2ccc(Cl)cc2)C1(O)Cn1cncn1 (centres undefined) |  | 89 | log10 vapour pressure (mmHg): -7.4 |
| FC(F)(Cl)Cl | -29.8 | -158 | log10 Henry constant (atm·m³/mol): -0.465; log10 vapour pressure (mmHg): 3.69; ready biodegradability: not readily biodegradable; log10 BCF: 0.79 |
| N#CCCNCCC#N |  |  | ready biodegradability: not readily biodegradable; log10 BCF: 0.08 |

| Structure (SMILES) | boiling point [°C] | melting point [°C] | other results |
| --- | --- | --- | --- |
| OC1(c2ccc(Cl)c(C(F)(F)F)c2)CCN(CCCC(c2ccc(F)cc2)c2ccc(F)cc2)CC1 |  | 106 |  |
| NC(=O)CCCCC1CCSS1 (centres undefined) |  | 128 |  |
| COCCCNc1nc(NCCCOC)nc(SC)n1 |  | 55 |  |
| COCC1CO1 (centres undefined) | 113 |  |  |
| CC1(C)CCC(C)(C)C1 | 118 | -88.4 |  |
| C=C(C)CCC(=C)C | 114 | -75.6 |  |
| CC(C)(O)CCO | 202 |  |  |
| CO[Si](OC)(OC)OC | 121 |  |  |
| O=C(O)c1c(Cl)cccc1Cl |  | 144 | ready biodegradability: not readily biodegradable; log10 BCF: 0.26 |
| COC(=O)c1c(C(F)F)nc(C(F)(F)F)c(C2=NCCS2)c1CC(C)C |  | 78 | log10 vapour pressure (mmHg): -5.65 |
| O=C(O)c1ccc(Cl)cc1Cl |  | 164 | ready biodegradability: not readily biodegradable |
| O[C@@H]1CCCC[C@H]1Cl |  | 29 |  |
| O=[N+]([O-])c1ccc2c(c1)CCN2 |  | 93 |  |
| C=C(C)C(=O)C(=CC(=O)O)OC |  | 83 |  |
| Oc1ccccc1O | 246 | 105 | log10 vapour pressure (mmHg): -2.44; ready biodegradability: readily biodegradable |
| CCCCCCCCCCCCOCCCCCCCCCCCC |  |  | ready biodegradability: readily biodegradable |
| Cc1ccccc1N=Cc1ccccc1 | 314 |  |  |
| CC1(C)CC[C@]2(C(=O)O)[C@H](O)C[C@]3(C)C(=CC[C@@H]4[C@@]5(C)CC[C@H](O)[C@@](C)(C=O)[C@@H]5CC[C@]43C)[C@@H]2C1 |  | 294 |  |
| CCCCC1C(=O)NC(=O)N(C2CCCCC2)C1=O (centres undefined) |  | 84 |  |
| CC(O)COc1ccccc1 (centres undefined) | 243 |  |  |
| Cc1cc(O)c(C(C)(C)C)cc1Sc1cc(C(C)(C)C)c(O)cc1C |  | 162 | ready biodegradability: not readily biodegradable |
| CCCCCCCCC(O)CCCCCCCC |  | 61 |  |
| CNCCc1ccc(O)c(O)c1 |  | 188 |  |
| BrCC(Br)(Br)CBr |  | 10.5 |  |
| Cc1cnc(Cl)nc1Cl | 235 | 26 |  |

| Structure (SMILES) | boiling point [°C] | melting point [°C] | other results |
| --- | --- | --- | --- |
| CNS(=O)(=O)c1ccc(C)cc1 |  | 78.5 |  |
| c1ccc2nc3ccccc3nc2c1 |  | 176 | log10 Koc (L/kg): 3.37 |
| ICCCCCI |  | 9 |  |
| CC(CO)(CO)CO | 283 | 204 | ready biodegradability: not readily biodegradable |
| CCCCCCCCCCCCCCCCCCCCO | 372 | 66.1 | log10 Koa: 12.1; log10 vapour pressure (mmHg): -7.34 |
| CCOCCl | 83 |  |  |
| CC(C)(C)N | 45 | -72.7 | log10 vapour pressure (mmHg): 2.57; ready biodegradability: not readily biodegradable |
| CCC(C)OC(=O)CCC(=O)OC(C)CC (centres undefined) | 256 |  |  |
| CC[N+](C)(C)CCOC(=O)CCC(=O)OCC[N+](C)(C)CC.[Br-].[Br-] |  | 158 |  |
| CC(C)C1=CC(O)C(C)CC1 (centres undefined) | 220 |  |  |
| O=Cc1cc(Cl)ccc1O |  | 100 |  |
| O=S(=O)(O)c1ccc2ccc(S(=O)(=O)O)cc2c1 |  | 199 |  |
| O=C1CNC(=S)N1 |  | 230 |  |
| Oc1ccccc1Cc1ccccc1 | 312 | 21 |  |
| O=C(c1ccc(O)cc1)c1ccc(O)c(O)c1O |  |  | ready biodegradability: not readily biodegradable |
| CCCCCCc1cccc2ccccc12 | 322 | -18 |  |
| CCOC(=O)N1CCNCC1 | 237 |  |  |
| C[Si](C)(C)CO | 121 |  |  |
| CCc1cccc(C)c1 | 161 | -95.5 | log10 biodegradation half-life (days): 0.477; log10 vapour pressure (mmHg): 0.483 |
| COC1=C(O)C(=O)C(C)=C(O)C1=O |  | 202 |  |
| Cc1c[nH]cn1 | 263 | 56 |  |
| NC(=O)NO |  | 141 |  |
| CSc1ccc(O)cc1C |  |  | ready biodegradability: not readily biodegradable |
